In patent publication US6552087B1 (Abbott GmbH & Co. KG, priority 1999, dated 2003):
Structures can show the parent of a compound that is named as a salt.

Legend:
rats = test: Prevention of reserpine-induced ptosis in rats; type: in vivo; conditions: Rattus norvegicus, read-out: ED50, Reserpine test in rats
Description: A further standard test for antidepressants but relying on the ability of compounds to prevent rather than reverse reserpine-induced effects in rodents.
The compounds were tested as described in Prog. Neuro-Psychopharmacol. & Biol. Psychiat., 12, 575-584, Buckett et al. Rats were housed five per cage rather than six per cage and ptosis was assessed twice during 60 sec rather than during 30 sec.
(§1) Data from the reserpine reversal screen in mice and the reserpine prevention test in rats were used to calculate ED50 values for the reversal and prevention of reserpine-induced effects respectively.

dopamine reuptake site [1] = molecular target: T1, dopamine reuptake site (Homo sapiens, UniProt Q01959); test: Dopamine reuptake site binding assay in human brain ([3H]GBR 12935); conditions: for Hill slope, DA reuptake site: human putamen, [3H]GBR 12935, mean ± SEM
T1 construct: Frozen putamen was homogenised in ice-cold 0.25 M sucrose (1:40 w/v); from tissue; host or cells: human post-mortem putamen membranes
T1 sequence (Q01959 whole entry): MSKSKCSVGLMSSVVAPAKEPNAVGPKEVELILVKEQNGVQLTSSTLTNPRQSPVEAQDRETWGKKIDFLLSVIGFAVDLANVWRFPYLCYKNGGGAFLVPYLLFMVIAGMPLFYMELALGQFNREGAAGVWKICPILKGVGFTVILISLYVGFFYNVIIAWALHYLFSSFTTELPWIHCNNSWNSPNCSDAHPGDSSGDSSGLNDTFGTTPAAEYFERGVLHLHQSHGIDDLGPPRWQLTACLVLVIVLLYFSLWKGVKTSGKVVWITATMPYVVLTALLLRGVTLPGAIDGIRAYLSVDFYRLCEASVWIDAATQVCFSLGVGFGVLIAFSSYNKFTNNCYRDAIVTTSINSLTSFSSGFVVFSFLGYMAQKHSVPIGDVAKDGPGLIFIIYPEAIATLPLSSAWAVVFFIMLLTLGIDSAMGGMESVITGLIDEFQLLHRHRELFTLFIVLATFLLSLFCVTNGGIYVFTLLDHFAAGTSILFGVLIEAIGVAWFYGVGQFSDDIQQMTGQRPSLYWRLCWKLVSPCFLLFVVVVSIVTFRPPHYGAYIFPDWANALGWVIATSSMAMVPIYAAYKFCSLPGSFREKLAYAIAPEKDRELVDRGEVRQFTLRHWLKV
Description: (§2) The IC50 was calculated using the following formula: [formula]
The membrane pellet was resuspended in Tris buffer (1:40 w/v) and incubated at 37° C. for 10 min (to remove endogenous neurotransmitters) and recentrifuged at 35,000 g for 10 minutes. […] All centrifugations were carried out at 4° C.

mice [2] = test: Reserpine reversal screen in mice; type: in vivo; conditions: Mus musculus, ip, reversal of reserpine-induced effects, reserpine 10 mg/kg i.p., read-out: ED50, Reserpine test in mice
Description: This was carried as described in U.S. Pat. No. 4,746,680 except that the dose of reserpine was 10 mg/kg (i.p.).
(§3) The test compounds were dissolved in deionised water. Control groups of mice were treated with either deionised water or the standard antidepressant, amitriptyline (30 mg/kg p.o.).
as §1

dopamine reuptake site [3] = molecular target: T2, dopamine reuptake site (Rattus norvegicus, UniProt P23977); test: Dopamine reuptake site binding assay in rat brain ([3H]GBR 12935); conditions: for Hill slope, DA reuptake site: rat striatum, [3H]GBR 12935, mean ± SEM
T2 construct: from tissue; host or cells: rat striatal membranes (Sprague-Dawley derived CD rats)
T2 sequence (P23977 whole entry): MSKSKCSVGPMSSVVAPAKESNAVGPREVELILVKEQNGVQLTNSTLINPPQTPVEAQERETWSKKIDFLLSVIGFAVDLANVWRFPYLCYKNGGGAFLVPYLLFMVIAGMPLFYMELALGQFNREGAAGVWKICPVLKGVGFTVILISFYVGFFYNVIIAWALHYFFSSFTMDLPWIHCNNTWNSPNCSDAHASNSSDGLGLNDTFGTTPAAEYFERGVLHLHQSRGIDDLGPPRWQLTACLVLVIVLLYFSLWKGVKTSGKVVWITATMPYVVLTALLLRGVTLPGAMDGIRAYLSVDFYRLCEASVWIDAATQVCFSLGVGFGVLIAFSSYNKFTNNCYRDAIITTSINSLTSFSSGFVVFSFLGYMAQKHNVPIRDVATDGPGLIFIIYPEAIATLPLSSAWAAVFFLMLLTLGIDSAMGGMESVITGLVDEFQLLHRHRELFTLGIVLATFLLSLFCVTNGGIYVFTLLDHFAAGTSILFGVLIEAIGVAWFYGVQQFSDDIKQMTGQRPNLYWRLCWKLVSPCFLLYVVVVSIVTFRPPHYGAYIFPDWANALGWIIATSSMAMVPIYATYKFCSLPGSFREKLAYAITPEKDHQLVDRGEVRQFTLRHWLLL
Description: as §2
Tissue was homogenised in ice-cold 0.32 M sucrose (1:80 w/v) using a motor driven teflon pestle (12 strokes, 800 rpm) and centrifuged at 1000 g for 12 minutes. […] All centrifugations were carried out at 4° C.

[4] = molecular target: T3, noradrenaline reuptake site (Rattus norvegicus, UniProt Q63380); test: Noradrenaline reuptake site binding assay in rat brain ([3H]nisoxetine); conditions: for Hill slope, NA reuptake site: rat frontal cortex, [3H]nisoxetine, mean ± SEM
T3 construct: Adult male CD rats were killed by cervical dislocation, brains removed and frontal cortices (120-150 mg) immediately dissected; from tissue; host or cells: rat frontal cortex membranes (Sprague-Dawley derived CD rats)
T3 sequence (Q63380 1-617): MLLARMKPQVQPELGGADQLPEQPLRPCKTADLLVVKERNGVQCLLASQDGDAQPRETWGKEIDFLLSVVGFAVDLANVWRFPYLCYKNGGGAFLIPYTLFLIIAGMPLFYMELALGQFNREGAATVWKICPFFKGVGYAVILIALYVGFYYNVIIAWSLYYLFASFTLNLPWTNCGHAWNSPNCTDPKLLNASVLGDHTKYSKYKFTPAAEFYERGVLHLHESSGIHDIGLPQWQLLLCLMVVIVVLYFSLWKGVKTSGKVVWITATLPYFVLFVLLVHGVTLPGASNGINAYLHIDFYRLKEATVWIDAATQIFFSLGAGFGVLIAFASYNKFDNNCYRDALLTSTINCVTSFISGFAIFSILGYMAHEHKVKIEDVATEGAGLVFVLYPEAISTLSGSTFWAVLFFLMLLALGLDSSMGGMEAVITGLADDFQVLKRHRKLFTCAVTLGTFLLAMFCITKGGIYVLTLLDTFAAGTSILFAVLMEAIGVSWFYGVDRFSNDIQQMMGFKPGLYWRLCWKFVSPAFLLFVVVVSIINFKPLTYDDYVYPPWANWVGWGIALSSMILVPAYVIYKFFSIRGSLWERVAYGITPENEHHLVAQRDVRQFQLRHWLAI
Description: as §2
The supernatant was discarded and the pellet rehomogenised in Tris buffer, 1:60 w/v, and centrifuged at 40,000 g for 10 minutes. This step was repeated a further twice so that, in total, the brain tissue was homogenised and centrifuged four times. […] All centrifugations were carried out at 4° C.

[5] = molecular target: T4, noradrenaline reuptake site (Homo sapiens, UniProt P23975); test: Noradrenaline reuptake site binding assay in human brain ([3H]nisoxetine); conditions: human thalamus, mean ± SEM
T4 construct: Frozen thalamus was homogenised in ice-cold 0.25 M sucrose (1:40 w/v); from tissue; host or cells: human post-mortem thalamus membranes
T4 sequence (P23975 whole entry): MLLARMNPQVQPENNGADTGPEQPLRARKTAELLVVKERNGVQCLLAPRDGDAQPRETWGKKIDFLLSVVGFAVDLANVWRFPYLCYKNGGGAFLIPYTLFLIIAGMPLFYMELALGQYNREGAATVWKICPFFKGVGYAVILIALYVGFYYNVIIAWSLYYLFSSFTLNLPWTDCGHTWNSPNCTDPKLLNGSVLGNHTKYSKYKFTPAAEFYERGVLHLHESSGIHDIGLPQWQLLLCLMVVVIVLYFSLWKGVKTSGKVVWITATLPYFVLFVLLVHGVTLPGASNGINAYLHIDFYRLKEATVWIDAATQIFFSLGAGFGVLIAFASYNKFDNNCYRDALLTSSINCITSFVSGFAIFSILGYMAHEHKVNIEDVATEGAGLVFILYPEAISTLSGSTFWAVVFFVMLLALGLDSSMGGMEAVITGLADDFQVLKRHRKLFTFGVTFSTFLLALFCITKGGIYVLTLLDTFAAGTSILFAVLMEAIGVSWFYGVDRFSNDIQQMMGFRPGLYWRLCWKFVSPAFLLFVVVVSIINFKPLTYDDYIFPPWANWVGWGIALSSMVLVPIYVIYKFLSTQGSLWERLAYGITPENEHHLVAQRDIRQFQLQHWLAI
Description: as §2
The pellet was resuspended in Tris buffer (1:40 w/v) and incubated at 37° C. for 10 min (to remove endogenous neurotransmitters) and recentrifuged at 35,000 g for 10 minutes. […] All centrifugations were carried out at 4° C.

mice [6] = test: Porsolt test in mice; type: in vivo; conditions: Mus musculus, dose required to increase mobility by 50%
Description: This test was carried out according to the procedure described in Porsolt, R. D. (1981). Behavioural despair. In: Antidepressants: Neurochemical, Behavioural and Clinical Perspectives, ed. […] New York: Raven Press.
as §3
Data from the Porsolt test were analysed in two ways.

Compound	ED50 (rats)	Ki (dopamine reuptake site [1])	Hill slope, DA reuptake site (dopamine reuptake site [1])	ED50 (mice [2])	Ki (dopamine reuptake site [3])	Hill slope, DA reuptake site (dopamine reuptake site [3])	Ki [4]	Hill slope, NA reuptake site [4]	Hill slope, NA reuptake site [5]	ED50 (mice [6])
CC(C)CC(N(C)C)C1(c2ccc(Cl)cc2)CCC1 (racemic) [Sibutramine, N,N-dimethyl-1-[1-(4-chlorophenyl)cyclobutyl]-3-methylbutylamine]	~1.5 mg/kg	943 ± 64 nM	[1.15 ± 0.04]	1.8 mg/kg	3070 ± 50 nM	[1.14 ± 0.04]	86 ± 10 nM	[1.02 ± 0.02]	[1.34 ± 0.01]	1.8 mg/kg
CC(C)C[C@H](N(C)C)C1(c2ccc(Cl)cc2)CCC1.Cl [(−)-Sibutramine, (−)-N-{1-[1-(4-chlorophenyl)cyclobutyl]-3-methylbutyl}-N,N-dimethylamine hydrochloride]	59 mg/kg	2890 ± 363 nM	[1.25 ± 0.05]	~30 mg/kg	4480 ± 65 nM	[2.07 ± 0.16]	23800 ± 615 nM	[1.02 ± 0.08]	[1.30 ± 0.04]	9.8 mg/kg
CC(C)C[C@@H](N(C)C)C1(c2ccc(Cl)cc2)CCC1 [(+)-Sibutramine, hydrochloride]	0.7 mg/kg	897 ± 125 nM	[1.29 ± 0.04]	~1 mg/kg	1650 ± 175 nM	[1.74 ± 0.20]	3040 ± 233 nM	[1.02 ± 0.06]	[0.97 ± 0.13]	2.4 mg/kg
